Assay results taken from PubChem BioAssay (NCI).
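How tested: cells in 96-well plates exposed to compound for 48 hours at five concentrations. GI50 is the concentration that inhibits growth by half. TGI is the concentration that stops growth completely.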

Columns and labels:
Test in all cases: DTP human tumour cell line panel, 48 h
HCC-2998 colon = test system: HCC-2998 colon
SK-OV-3 ovarian = test system: SK-OV-3 ovarian
MDA-MB-231 breast = test system: MDA-MB-231 breast
ACHN renal = test system: ACHN renal
SK-MEL-5 melanoma = test system: SK-MEL-5 melanoma
A498 renal = test system: A498 renal
NCI-H226 lung = test system: NCI-H226 lung
RXF 393 renal = test system: RXF 393 renal
SF-539 CNS = test system: SF-539 CNS
MDA-MB-435 = test system: MDA-MB-435
OVCAR-5 ovarian = test system: OVCAR-5 ovarian
BT-549 breast = test system: BT-549 breast
SN12C renal = test system: SN12C renal
NCI/ADR-RES ovarian = test system: NCI/ADR-RES ovarian
UO-31 renal = test system: UO-31 renal
SF-268 CNS = test system: SF-268 CNS
U251 CNS = test system: U251 CNS
SK-MEL-28 melanoma = test system: SK-MEL-28 melanoma
NCI-H522 lung = test system: NCI-H522 lung
HL-60(TB) leukemia = test system: HL-60(TB) leukemia
HS 578T breast = test system: HS 578T breast
786-0 renal = test system: 786-0 renal
CCRF-CEM leukemia = test system: CCRF-CEM leukemia
SR leukemia = test system: SR leukemia
SK-MEL-2 melanoma = test system: SK-MEL-2 melanoma
RPMI-8226 leukemia = test system: RPMI-8226 leukemia
MOLT-4 leukemia = test system: MOLT-4 leukemia
HT29 colon = test system: HT29 colon
DU-145 prostate = test system: DU-145 prostate
UACC-62 melanoma = test system: UACC-62 melanoma
HOP-62 NSCLC = test system: HOP-62 NSCLC
COLO 205 colon = test system: COLO 205 colon
OVCAR-4 ovarian = test system: OVCAR-4 ovarian
SF-295 CNS = test system: SF-295 CNS
UACC-257 melanoma = test system: UACC-257 melanoma
HOP-92 NSCLC = test system: HOP-92 NSCLC
K-562 leukemia = test system: K-562 leukemia
MALME-3M melanoma = test system: MALME-3M melanoma
TK-10 renal = test system: TK-10 renal
SNB-75 CNS = test system: SNB-75 CNS
A549 NSCLC = test system: A549 NSCLC
MCF7 breast = test system: MCF7 breast
OVCAR-8 ovarian = test system: OVCAR-8 ovarian
M14 melanoma = test system: M14 melanoma
KM12 colon = test system: KM12 colon
EKVX NSCLC = test system: EKVX NSCLC
NCI-H460 lung = test system: NCI-H460 lung
PC-3 prostate = test system: PC-3 prostate
HCT-15 colon = test system: HCT-15 colon
IGROV1 ovarian = test system: IGROV1 ovarian
SW-620 colon = test system: SW-620 colon
LOX IMVI melanoma = test system: LOX IMVI melanoma
CAKI-1 renal = test system: CAKI-1 renal

With `Cc1[nH]c(C(=O)Nc2ccccc2OCc2cccc(C(=O)NC3CCCNC3)c2)c(Cl)c1Cl` (centres undefined) the GI50 (HCC-2998 colon) was 2.01 µM, the TGI (HCC-2998 colon) was 3.73 µM and the GI50 (SK-OV-3 ovarian) was 8.91 µM. It also gave a TGI (SK-OV-3 ovarian) of 26.9 µM, a GI50 (MDA-MB-231 breast) of 1.75 µM and a TGI (MDA-MB-231 breast) of 3.38 µM. For the same compound, the GI50 (ACHN renal) was 1.66 µM, the TGI (ACHN renal) was 3.11 µM and the GI50 (SK-MEL-5 melanoma) was 1.71 µM. It also gave a TGI (SK-MEL-5 melanoma) of 3.11 µM, a GI50 (A498 renal) of 1.8 µM and a TGI (A498 renal) of 5.59 µM. It also gave a GI50 (NCI-H226 lung) of 2.01 µM, a TGI (NCI-H226 lung) of 5.31 µM and a GI50 (RXF 393 renal) of 1.48 µM. It also gave a TGI (RXF 393 renal) of 3.1 µM, a GI50 (SF-539 CNS) of 1.69 µM and a TGI (SF-539 CNS) of 3.15 µM. For the same compound, the GI50 (MDA-MB-435) was 1.74 µM, the TGI (MDA-MB-435) was 3.24 µM and the GI50 (OVCAR-5 ovarian) was 1.64 µM. The TGI (OVCAR-5 ovarian) was 3.06 µM, the GI50 (BT-549 breast) was 2.63 µM and the TGI (BT-549 breast) was 9.75 µM. The GI50 (SN12C renal) was 1.9 µM, the TGI (SN12C renal) was 3.72 µM and the GI50 (NCI/ADR-RES ovarian) was 2.96 µM. For the same compound, the TGI (NCI/ADR-RES ovarian) was 9.88 µM.
`Cc1ccc2c(c1)Oc1nc(N)c(C#N)c(N)c1C2Sc1ccc(F)cc1` (centres undefined) gave a GI50 (UO-31 renal) of 0.215 µM, a TGI (UO-31 renal) of 1.72 µM and a GI50 (HCC-2998 colon) of 1.51 µM. For the same compound, the TGI (HCC-2998 colon) was 2.92 µM, the GI50 (SK-OV-3 ovarian) was 1.8 µM and the TGI (SK-OV-3 ovarian) was 3.29 µM. For the same compound, the GI50 (SF-268 CNS) was 1.23 µM, the TGI (SF-268 CNS) was 2.52 µM and the GI50 (U251 CNS) was 1.17 µM. For the same compound, the TGI (U251 CNS) was 2.49 µM, the GI50 (SK-MEL-28 melanoma) was 1.17 µM and the TGI (SK-MEL-28 melanoma) was 2.4 µM. It also gave a GI50 (NCI-H522 lung) of 0.785 µM, a TGI (NCI-H522 lung) of 2.1 µM and a GI50 (HL-60(TB) leukemia) of 0.242 µM. The TGI (HL-60(TB) leukemia) was 0.647 µM, the GI50 (HS 578T breast) was 1.02 µM and the TGI (HS 578T breast) was 4.22 µM. The GI50 (786-0 renal) was 1.19 µM, the TGI (786-0 renal) was 2.45 µM and the GI50 (CCRF-CEM leukemia) was 0.201 µM. For the same compound, the TGI (CCRF-CEM leukemia) was greater than 100 µM, the GI50 (SR leukemia) was 0.301 µM and the TGI (SR leukemia) was greater than 100 µM. It also gave a GI50 (SK-MEL-2 melanoma) of 1.3 µM, a TGI (SK-MEL-2 melanoma) of 2.6 µM and a GI50 (RPMI-8226 leukemia) of 0.448 µM. It also gave a TGI (RPMI-8226 leukemia) greater than 100 µM, a GI50 (ACHN renal) of 1.34 µM and a TGI (ACHN renal) of 2.63 µM. The GI50 (MOLT-4 leukemia) was 0.306 µM, the GI50 (HT29 colon) was 1.82 µM and the TGI (HT29 colon) was 3.43 µM. It also gave a GI50 (DU-145 prostate) of 1.48 µM, a TGI (DU-145 prostate) of 2.82 µM and a GI50 (SK-MEL-5 melanoma) of 1.57 µM. For the same compound, the TGI (SK-MEL-5 melanoma) was 2.95 µM, the GI50 (A498 renal) was 1.45 µM and the TGI (A498 renal) was 2.78 µM. It also gave a GI50 (NCI-H226 lung) of 1.53 µM, a TGI (NCI-H226 lung) of 4.16 µM and a GI50 (RXF 393 renal) of 0.611 µM. For the same compound, the TGI (RXF 393 renal) was 1.69 µM, the GI50 (SF-539 CNS) was 1.34 µM and the TGI (SF-539 CNS) was 2.63 µM. The GI50 (MDA-MB-435) was 1.26 µM, the TGI (MDA-MB-435) was 2.67 µM and the GI50 (UACC-62 melanoma) was 1.5 µM. It also gave a TGI (UACC-62 melanoma) of 2.87 µM, a GI50 (HOP-62 NSCLC) of 1.62 µM and a TGI (HOP-62 NSCLC) of 3.08 µM. It also gave a GI50 (COLO 205 colon) of 1.33 µM, a TGI (COLO 205 colon) of 2.78 µM and a GI50 (OVCAR-4 ovarian) of 1.45 µM. The TGI (OVCAR-4 ovarian) was 2.78 µM, the GI50 (SF-295 CNS) was 1.68 µM and the TGI (SF-295 CNS) was 3.07 µM. It also gave a GI50 (UACC-257 melanoma) of 1.29 µM, a TGI (UACC-257 melanoma) of 2.58 µM and a GI50 (HOP-92 NSCLC) of 1.14 µM. For the same compound, the TGI (HOP-92 NSCLC) was 2.44 µM, the GI50 (K-562 leukemia) was 0.309 µM and the TGI (K-562 leukemia) was greater than 100 µM. The GI50 (MALME-3M melanoma) was 0.992 µM, the TGI (MALME-3M melanoma) was 2.34 µM and the GI50 (TK-10 renal) was 2.23 µM. For the same compound, the TGI (TK-10 renal) was 3.7 µM, the GI50 (SNB-75 CNS) was 0.956 µM and the TGI (SNB-75 CNS) was 2.33 µM. The GI50 (A549 NSCLC) was 1.55 µM, the TGI (A549 NSCLC) was 3.01 µM and the GI50 (MCF7 breast) was 0.361 µM. It also gave a TGI (MCF7 breast) of 1.99 µM, a GI50 (BT-549 breast) of 0.415 µM and a TGI (BT-549 breast) of 1.71 µM. The GI50 (OVCAR-8 ovarian) was 1.3 µM, the TGI (OVCAR-8 ovarian) was 2.61 µM and the GI50 (M14 melanoma) was 1.44 µM. The TGI (M14 melanoma) was 2.85 µM, the GI50 (KM12 colon) was 1.48 µM and the TGI (KM12 colon) was 2.83 µM. For the same compound, the GI50 (EKVX NSCLC) was 1.22 µM and the TGI (EKVX NSCLC) was 2.47 µM.
`Cc1ccc(-c2cc3nc(C(Cl)Cl)nc(-c4ccco4)n3n2)cc1` gave a GI50 (UO-31 renal) of 0.523 µM, a TGI (UO-31 renal) of 3.99 µM and a GI50 (HCC-2998 colon) of 0.321 µM. The TGI (HCC-2998 colon) was 1.4 µM, the GI50 (SK-OV-3 ovarian) was 3.09 µM and the TGI (SK-OV-3 ovarian) was greater than 100 µM. For the same compound, the GI50 (SF-268 CNS) was 1.65 µM, the TGI (SF-268 CNS) was greater than 100 µM and the GI50 (MDA-MB-231 breast) was 0.289 µM. The TGI (MDA-MB-231 breast) was 1.85 µM, the GI50 (NCI-H460 lung) was 0.352 µM and the TGI (NCI-H460 lung) was 1.47 µM. For the same compound, the GI50 (NCI-H522 lung) was greater than 100 µM, the TGI (NCI-H522 lung) was greater than 100 µM and the GI50 (HL-60(TB) leukemia) was 0.348 µM. The TGI (HL-60(TB) leukemia) was 3.25 µM, the GI50 (786-0 renal) was 2.03 µM and the TGI (786-0 renal) was greater than 100 µM. For the same compound, the GI50 (CCRF-CEM leukemia) was greater than 100 µM, the TGI (CCRF-CEM leukemia) was greater than 100 µM and the GI50 (SR leukemia) was greater than 100 µM. The TGI (SR leukemia) was greater than 100 µM, the GI50 (PC-3 prostate) was 0.506 µM and the TGI (PC-3 prostate) was 4.49 µM. It also gave a GI50 (RPMI-8226 leukemia) of 2.38 µM, a TGI (RPMI-8226 leukemia) greater than 100 µM and a GI50 (ACHN renal) of 0.273 µM. It also gave a TGI (ACHN renal) of 1.36 µM, a GI50 (HCT-15 colon) of 0.845 µM and a TGI (HCT-15 colon) greater than 100 µM. The GI50 (MOLT-4 leukemia) was greater than 100 µM, the TGI (MOLT-4 leukemia) was greater than 100 µM and the GI50 (HT29 colon) was 0.328 µM. For the same compound, the TGI (HT29 colon) was 1.23 µM, the GI50 (DU-145 prostate) was 0.404 µM and the TGI (DU-145 prostate) was 2.35 µM. It also gave a GI50 (SK-MEL-5 melanoma) greater than 100 µM, a TGI (SK-MEL-5 melanoma) greater than 100 µM and a GI50 (NCI-H226 lung) greater than 100 µM. The TGI (NCI-H226 lung) was greater than 100 µM, the GI50 (SF-539 CNS) was 0.927 µM and the TGI (SF-539 CNS) was 3.33 µM. For the same compound, the GI50 (HOP-62 NSCLC) was 0.298 µM, the TGI (HOP-62 NSCLC) was 3.82 µM and the GI50 (IGROV1 ovarian) was 2.65 µM. For the same compound, the TGI (IGROV1 ovarian) was greater than 100 µM, the GI50 (HOP-92 NSCLC) was 0.339 µM and the TGI (HOP-92 NSCLC) was 2.69 µM. For the same compound, the GI50 (MALME-3M melanoma) was greater than 100 µM, the TGI (MALME-3M melanoma) was greater than 100 µM and the GI50 (SNB-75 CNS) was 0.186 µM. The TGI (SNB-75 CNS) was 1.71 µM, the GI50 (SW-620 colon) was 0.583 µM and the TGI (SW-620 colon) was greater than 100 µM. The GI50 (BT-549 breast) was greater than 100 µM, the TGI (BT-549 breast) was greater than 100 µM and the GI50 (OVCAR-8 ovarian) was 0.604 µM. It also gave a TGI (OVCAR-8 ovarian) greater than 100 µM, a GI50 (SN12C renal) greater than 100 µM and a TGI (SN12C renal) greater than 100 µM. The GI50 (M14 melanoma) was greater than 100 µM, the TGI (M14 melanoma) was greater than 100 µM and the GI50 (LOX IMVI melanoma) was greater than 100 µM. It also gave a TGI (LOX IMVI melanoma) greater than 100 µM, a GI50 (KM12 colon) of 1.81 µM and a TGI (KM12 colon) of 5.52 µM. It also gave a GI50 (CAKI-1 renal) of 0.832 µM and a TGI (CAKI-1 renal) of 4.74 µM.
